Entries after “also recorded” stand apart in the source; their conditions may differ.
Target: T1, Nav1.5 (Homo sapiens, UniProt Q14524)
T1 construct: expressed in transfected cells
Assay: Whole-cell patch clamp of Nav1.5 stable cells with optogenetic PI-phosphatases and diC8PI(4,5)P2 in the pipette
Assay type: cell-based
Conditions: for left shift in the I-V relationship / shift in V½SSI / shift in V½act / V½SSI / V½act: 200 μM diC8PI(4,5)P2; for current density: 200 μM diC8PI(4,5)P2, −55 mV; for τinact / ILATE: diC8PI(4,5)P2; for ILATE: % of Ipeak
Protocol: Nav1.5 channels were studied with Navβ1 (SCNIB, isoform b; NM_001037) in pRAT, a CMV driven vector. N-terminal CRY2-tagged pseudojanin in pMaX(+) vector was generated by Genscript (Piscataway, NY). Purified diC8PI(4,5)P2 was purchased from Echelon Biosciences.
HEK293-T cells were purchased from American Type Culture Collection (ATCC, catalog no. CRL-3216). The cells were cultured in 60-mm dishes in Dulbecco's Modified Eagle Medium (DMEM) (Sigma-Aldrich) that was supplemented with a combination of 100 units/ml of penicillin, 100 μg/ml of streptomycin and 10% Fetal Bovine Serum (FBS). Stable cells were cultured in previously mentioned DMEM, penicillin, streptomycin, and FBS medium with addition of 2 μg/ml puromycin, 5 μg/ml blasticidin, 200 μg/ml geneticin (G418). Both cell lines were incubated at 5% CO2 at 37° C. 24 hours before transfection cells from either cell lines were seeded on glass coverslips in 35-mm dishes. Both cell lines were transfected in OptiMEM using polyethyleneimine (PEI) at a 1 μg of DNA: 4 μL PEI to 1 μg of DNA: 6 μL PEI ratio for 2-4 hours. HEK293-T cells were transfected with 1.5 μg of channel DNA and 1 μg of the beta subunit alone and alongside light-activated constructs. Stable cells were transfected with 1p g of the beta subunit alone and alongside light-activated constructs. Electrophysiology recordings were performed within 24-48 hours after transfection at room temperature.
Both the HEK293-T, and Nav1.5 stable cells were studied under whole-cell patch clamp. Sodium currents were recorded using the Tecella Pico-2 amplifier (Tecella) and WinWCP software (University of Strathclyde) at a low pass (Bessel) filter of 9 kHz and sampled at 50 kHz frequencies. The borosilicate glass (Clark Kent) patch pipettes were pulled to a resistance of 2-4 MQ using the vertical puller (Narishige) when filled with internal solution. The internal solution contained (in mM): 60 CsCl, 80 CsF, 2 MgCl2·6H2O, 10 EGTA, 5 HEPES, 5 Na2ATP, pH 7.4 with CsOH. Cells were perfused through a multichannel gravity-driven perfusion manifold (Warner) with an extracellular solution containing (in mM): 130 NaCl, 5 CsCl, 1.2 MgCl2·6H2O, 1.5 CaCl2), 8 Glucose, 10 HEPES. Cells with a series resistance less than 15 MQ were studied.
Current-voltage relationships were evoked by a 250-ms test pulse between −80 mV to 35 mV, in 5 mV increments. Steady-state inactivation was studied by holding cells at −120 mV and then comparing currents that were evoked by a 50 ms test pulse between −120 mV and −20 mV to those evoked by a 500 ms pre-pulse to 30 mV, in 10 mV increments. Normalized peak currents were then plotted against pre-pulse potential (mV). To determine voltage-dependence, the data was normalized and plotted against the driving force and fitted to a Boltzmann function, I=Imax(1+exp[V−V1/2/k]), where Imax is maximum current and k is the slope factor to generate normalized conductance-voltage (G-V) relationship. The ILATE was evoked by a single test pulse between −90 mV and −20 mV. ILATE was calculated from the last 10 ms of this 250 ms test pulse. From this recording protocol, the time constant for inactivation (T) was determined from a mono-exponential fit of normalized current amplitude using It=Imax+A [e^−t/τ], A is amplitude and t is time. All whole-cell currents were normalized to the capacitance of cell.
Experiments were set up similar to those in Gada et al (2023). Optogenetic studies were conducted simultaneously alongside patch-clamp. Here the photoactivation of cells was conducted in the epifluorescence-mode to utilize continuous excitation from a broad-spectrum LED (Excelitas) through a 448/20 nm filter (Chroma), via a 20× objective lens (Olympus). A photometer (ThorLabs) was used to measure the light output which measured at 50 mW/cm^2. […]

[1] = 200 μM diC8PI(4,5)P2 in pipette
[2] = CRY2-5POCRL + CRY2-Sac2, BL vs control
[3] = CRY2-5POCRL + CRY2-Sac2, control (before BL)
[4] = CRY2-5POCRL, control (before BL)
[5] = CRY2-5POCRL, diC8PI(4,5)P2 enriched vs BL without diC8PI(4,5)P2

T1 sequence (Q14524 whole entry): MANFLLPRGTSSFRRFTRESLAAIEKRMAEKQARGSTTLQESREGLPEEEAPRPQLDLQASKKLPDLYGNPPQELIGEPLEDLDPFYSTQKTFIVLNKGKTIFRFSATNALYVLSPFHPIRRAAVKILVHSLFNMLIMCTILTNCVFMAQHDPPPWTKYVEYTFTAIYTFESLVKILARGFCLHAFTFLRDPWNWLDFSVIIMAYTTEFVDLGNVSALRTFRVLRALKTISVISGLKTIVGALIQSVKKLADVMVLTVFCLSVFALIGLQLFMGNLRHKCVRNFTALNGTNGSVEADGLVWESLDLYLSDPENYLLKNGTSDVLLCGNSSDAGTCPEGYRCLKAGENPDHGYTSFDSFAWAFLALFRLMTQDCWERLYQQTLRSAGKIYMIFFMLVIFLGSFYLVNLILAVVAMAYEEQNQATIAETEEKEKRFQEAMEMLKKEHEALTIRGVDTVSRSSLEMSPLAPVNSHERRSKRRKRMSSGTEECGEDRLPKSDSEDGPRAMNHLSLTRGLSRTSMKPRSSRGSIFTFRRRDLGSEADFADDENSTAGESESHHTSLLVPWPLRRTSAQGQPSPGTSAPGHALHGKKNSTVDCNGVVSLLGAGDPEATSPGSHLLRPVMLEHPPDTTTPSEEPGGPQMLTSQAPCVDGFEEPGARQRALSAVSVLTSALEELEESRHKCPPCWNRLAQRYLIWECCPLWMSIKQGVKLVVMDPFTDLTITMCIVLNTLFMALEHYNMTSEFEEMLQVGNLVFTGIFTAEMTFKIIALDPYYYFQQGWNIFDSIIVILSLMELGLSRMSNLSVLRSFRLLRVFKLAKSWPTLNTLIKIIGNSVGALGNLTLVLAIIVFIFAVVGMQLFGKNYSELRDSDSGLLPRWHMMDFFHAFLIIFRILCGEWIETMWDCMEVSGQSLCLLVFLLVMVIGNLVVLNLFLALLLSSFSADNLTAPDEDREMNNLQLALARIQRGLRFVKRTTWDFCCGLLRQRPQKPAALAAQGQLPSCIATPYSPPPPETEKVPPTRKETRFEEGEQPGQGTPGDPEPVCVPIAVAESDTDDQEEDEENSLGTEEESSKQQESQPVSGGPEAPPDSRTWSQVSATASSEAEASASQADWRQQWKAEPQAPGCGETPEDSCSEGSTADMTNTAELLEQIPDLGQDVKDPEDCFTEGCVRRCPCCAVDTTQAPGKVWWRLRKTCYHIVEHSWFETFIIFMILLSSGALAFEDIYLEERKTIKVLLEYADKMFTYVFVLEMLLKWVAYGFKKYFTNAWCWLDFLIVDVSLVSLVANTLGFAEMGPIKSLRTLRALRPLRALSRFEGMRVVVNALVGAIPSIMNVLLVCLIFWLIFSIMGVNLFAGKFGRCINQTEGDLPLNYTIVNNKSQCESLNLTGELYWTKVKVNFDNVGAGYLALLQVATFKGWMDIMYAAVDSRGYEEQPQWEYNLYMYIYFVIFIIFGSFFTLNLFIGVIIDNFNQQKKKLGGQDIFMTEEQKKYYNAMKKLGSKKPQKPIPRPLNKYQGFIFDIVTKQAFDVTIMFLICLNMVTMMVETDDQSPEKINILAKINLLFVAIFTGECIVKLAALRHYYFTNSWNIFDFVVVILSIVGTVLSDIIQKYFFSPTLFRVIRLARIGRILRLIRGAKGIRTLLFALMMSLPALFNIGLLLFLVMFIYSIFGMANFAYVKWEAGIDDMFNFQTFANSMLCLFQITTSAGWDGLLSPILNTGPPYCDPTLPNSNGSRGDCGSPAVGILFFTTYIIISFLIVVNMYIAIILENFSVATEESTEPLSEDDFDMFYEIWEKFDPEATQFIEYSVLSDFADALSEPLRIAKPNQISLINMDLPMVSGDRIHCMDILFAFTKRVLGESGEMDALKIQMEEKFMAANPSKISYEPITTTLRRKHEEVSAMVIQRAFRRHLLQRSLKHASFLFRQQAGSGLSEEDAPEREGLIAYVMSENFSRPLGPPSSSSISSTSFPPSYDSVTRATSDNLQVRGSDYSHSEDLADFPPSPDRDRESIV

## CCCCCCCC(=O)OC[C@H](COP(=O)(O)O[C@@H]1[C@H](O)[C@H](O)[C@@H](OP(=O)(O)O)[C@H](OP(=O)(O)O)[C@H]1O)OC(=O)CCCCCCC [diC8-PIP2]
[1]
  effect on CRY2-5POCRL (CRY2-5P) dephosphorylation effects: partially opposes; also recorded: partially reverses
  effect on CRY2-5POCRL/Sac2 dephosphorylation effects (activation, SSI): partially opposes
CRY2-5POCRL + CRY2-Sac2, BL vs before BL
  left shift in the I-V relationship: −1.87 mV
[2]
  shift in V½SSI: −9.1±1.62 mV
  shift in V½act: −1.87±1.52 mV
CRY2-5POCRL + CRY2-Sac2, BL
  V½SSI: −80.48±1.75 mV
  V½act: −53.17±1.49 mV
  current density: −203.83±59.93 pA/pF
[3]
  V½SSI: −71.75±1.84 mV
  V½act: −51.30±1.7 mV
CRY2-5POCRL + CRY2-Sac2, diC8PI(4,5)P2
  effect on changes in window current: does not oppose
CRY2-5POCRL + CRY2-Sac2, diC8PI(4,5)P2 enriched before BL vs BL without diC8PI(4,5)P2
  difference in V½act: −6.518 mV
CRY2-5POCRL + CRY2-Sac2, diC8PI(4,5)P2 enriched vs BL without diC8PI(4,5)P2
  difference in V½SSI: −8.73±2.61
CRY2-5POCRL + CRY2-Sac2, without BL
  current density: −80.94±28.21 pA/pF
CRY2-5POCRL, BL vs control
  shift in V½SSI: −0.9383±2.01 mV
  shift in V½act: −8.61±0.77 mV
CRY2-5POCRL, BL
  V½SSI: −72.13±1.53 mV
  V½act: −55.90±2.00 mV
  left shift in the I-V relationship: ~8.61 mV
  τinact: 1.68 ± 0.15 ms
  ILATE: 0.64±0.25%
[4]
  V½SSI: −73.07±1.54 mV
  V½act: −47.29±1.77 mV
  τinact: 1.24 ± 0.3 ms
  ILATE: 0.08±0.025%
CRY2-5POCRL, diC8PI(4,5)P2 enriched before BL vs BL without diC8PI(4,5)P2
  difference in V½act: ~6.768±2.420 mV
[5]
  difference in ILATE: 2.139±0.5794
  difference in V½SSI: −6.518 mV
  difference in τinact: 1.345 ± 0.3918 ms
diC8PI(4,5)P2 enriched vs depleted
  effect on CRY2-PJ dephosphorylation effect on voltage-dependence of inactivation (SSI): opposed; also recorded: partially opposes
diC8PI(4,5)P2 in pipette
  effect on CRY2-PJ dephosphorylation effects on Nav1.5: did not oppose; also recorded: does not oppose

— patent US20240358727A1, “MICROSCALE THERMOPHORESIS TO EVALUATE CHANNEL LIPID INTERACTIONS AND METHODS OF TREATING NAV CHANNELS RELATED DISEASES” (Northeastern University, priority 2023, published 2024)
